From patent publication US7064207B2, “Androgen receptor antagonists” (Warner Lambert Company LLC, priority 2003, dated 2006)
Like-named read-outs stand apart in the source and are kept apart here.

Target: T1, androgen receptor (Homo sapiens, UniProt P10275)
T1 sequence (P10275 1-920 Q868H): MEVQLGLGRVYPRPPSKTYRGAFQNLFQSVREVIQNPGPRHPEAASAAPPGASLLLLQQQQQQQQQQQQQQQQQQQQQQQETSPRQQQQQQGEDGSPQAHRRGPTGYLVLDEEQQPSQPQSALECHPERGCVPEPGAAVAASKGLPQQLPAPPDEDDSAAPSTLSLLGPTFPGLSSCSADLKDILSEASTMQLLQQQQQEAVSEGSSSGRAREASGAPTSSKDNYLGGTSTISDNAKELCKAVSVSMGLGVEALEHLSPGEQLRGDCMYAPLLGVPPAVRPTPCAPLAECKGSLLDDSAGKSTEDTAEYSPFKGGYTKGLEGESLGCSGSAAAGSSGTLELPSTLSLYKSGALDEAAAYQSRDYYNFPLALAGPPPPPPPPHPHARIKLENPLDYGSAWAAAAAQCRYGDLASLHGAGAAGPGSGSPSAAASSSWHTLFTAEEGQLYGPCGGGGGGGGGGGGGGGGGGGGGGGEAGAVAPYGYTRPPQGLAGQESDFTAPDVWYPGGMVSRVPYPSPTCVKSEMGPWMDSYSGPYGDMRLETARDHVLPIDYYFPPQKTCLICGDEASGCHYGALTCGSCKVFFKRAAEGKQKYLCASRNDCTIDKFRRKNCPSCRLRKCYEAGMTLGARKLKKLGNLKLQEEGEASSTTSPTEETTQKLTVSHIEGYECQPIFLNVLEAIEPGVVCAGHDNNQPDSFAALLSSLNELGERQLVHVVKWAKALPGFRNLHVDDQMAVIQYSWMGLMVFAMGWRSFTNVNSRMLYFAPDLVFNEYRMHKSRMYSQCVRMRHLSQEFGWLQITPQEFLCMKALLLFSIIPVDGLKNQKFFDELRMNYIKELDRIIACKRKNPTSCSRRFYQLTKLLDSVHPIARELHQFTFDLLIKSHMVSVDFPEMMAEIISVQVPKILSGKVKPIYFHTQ
Assay: AR Antagonist Cell Assay (MMTV-luciferase reporter, inhibition of DHT induction)
Assay type: cell-based
Procedure: The compounds ability to antagonize the effects of androgen on the androgen receptor were determined in the protocol described immediately below.
Experimental Procedure for AR Antagonist Cell Assay
Cell line: MDA-MB453-MMTV clone 54–19. This cell line is a stable transfected cell line with MDA-MB453 cell background (human breast tumor cell expressing high level of androgen receptor). A MMTV minimal promoter containing ARE was first cloned in front of a firefly luciferase reporter gene. Then the cascade was cloned into transfection vector pUV120puro. Electroporation method was used for transfecting MDA-MB-453 cell. Puromycin resistant stable cell line was selected. Cell Culture Media and Reagents:
Culture medium: DMEM (high glucose, Gibco cat #: 11960-044), 10% FBS, and 1% L-glutamine
Plating medium: DMEM (phenol red free), 10% charcoal treated HyClone serum, 1% L-glutamine
Assay medium: DMEM (phenol red free), 1% charcoal treated HyClone serum, 1% L-glutamine, and 1% penicillin/streptomycin
3× luciferase buffer: 2% beta-mercaptoethanol, 0.6% ATP, 0.0135% luciferine in cell lysis buffer
• 1. Cells are maintained in culture medium, splitting cells when they reach 80–90% confluence • 2. To test compounds, 10,000 cells/well are plated to opaque 96 cell culture plate in 100 ul/well plating medium, culture for overnight at 37° C. in cell culture incubator • 3. Carefully remove plating medium, then add 80 ul/well of pre-warmed assay medium, add 10 ul/well testing compound (final concentration at 10 uM or 1 uM), incubate at 37° C. for 30 minutes • 4. Add 10 ul/well freshly prepared DHT (final concentration at 100 pM) to each well, incubate at 37° C. for 17 hr (overnight) • 5. Add 50 ul/well 3× luciferase buffer, incubate at room temperature for 5 minutes, then count on Luminometer The fold induction over background by 100 pM DHT in the absence of testing compounds is standardized as 100% and experimental result is expressed as percentage of inhibition by testing compounds.

[1] = MDA-MB453-MMTV clone 54-19 cells, 100 pM DHT, 17 hr, luciferase, read-out: Cell IC50

IC50 (per procedure of Example 57, read-out: IC50) | IC50 [1] | Compound
181 nM | – | O=c1cc(C(F)(F)F)c2cc(S(=O)(=O)N3CCCCC3)ccc2[nH]1 [Example 2, 6-(Piperidine-1-sulfonyl)-4-trifluoromethyl-1H-quinolin-2-one]
– | > 10000 nM | CCOC(=O)C1CCN(S(=O)(=O)c2ccc3c(c2)c(C(F)(F)F)cc(=O)n3C)CC1 [Example 3, 1-(1-Methyl-2-oxo-4-trifluoromethyl-1,2-dihydroquinoline-6-sulfonyl)piperidine-4-carboxylic acid ethyl ester]
– | > 10000 nM | Cn1c(=O)cc(C(F)(F)F)c2cc(S(=O)(=O)N3Cc4ccccc4C3)ccc21 [Example 4, 6-(1,3-Dihydroisoindole-2-sulfonyl)-1-methyl-4-trifluoromethyl-1H-quinolin-2-one]
– | > 10000 nM | CCN1CCN(S(=O)(=O)c2ccc3c(c2)c(C(F)(F)F)cc(=O)n3C)CC1 [Example 5, 6-(4-Ethylpiperazine-1-sulfonyl)-1-methyl-4-trifluoromethyl-1H-quinolin-2-one]
– | > 10000 nM | Cn1c(=O)cc(C(F)(F)F)c2cc(S(=O)(=O)N3CCN(CCOCCO)CC3)ccc21 [Example 6, 6-{4-[2-(2-Hydroxyethoxy)-ethyl]piperazine-1-sulfonyl}-1-methyl-4-trifluoromethyl-1H-quinolin-2-one]
– | > 10000 nM | Cn1c(=O)cc(C(F)(F)F)c2cc(S(=O)(=O)N3CCSC3)ccc21 [Example 7, 1-Methyl-6-(thiazolidine-3-sulfonyl)-4-trifluoromethyl-1H-quinolin-2-one]
– | > 10000 nM | Cn1c(=O)cc(C(F)(F)F)c2cc(S(=O)(=O)N3CCCC4CCCCC43)ccc21 (stereo not shown) [Example 8, 1-Methyl-6-(octahydro-quinoline-1-sulfonyl)-4-trifluoromethyl-1H-quinolin-2-one]
– | > 10000 nM | Cn1c(=O)cc(C(F)(F)F)c2cc(S(=O)(=O)N3CCCCCC3)ccc21 [Example 9, 6-(Azepane-1-sulfonyl)-1-methyl-4-trifluoromethyl-1H-quinolin-2-one]
– | > 10000 nM | CC1CN(S(=O)(=O)c2ccc3c(c2)c(C(F)(F)F)cc(=O)n3C)CC(C)O1 (stereo not shown) [Example 10, 6-(2,6Dimethylmorpholine-4-sulfonly)-1-methyl-4-trifluoromethyl-1H-quinolin-2-one]
– | > 10000 nM | Cn1c(=O)cc(C(F)(F)F)c2cc(S(=O)(=O)N3CCCc4ccccc43)ccc21 [Example 11, 6-(3,4-Dihydro-2H-quinoline-1-sulfonyl)-1-methyl-4-trifluoromethyl-1H-quinolin-2-one]
– | 1230 nM | O=c1cc(C(F)(F)F)c2cc(S(=O)(=O)N3CCCCCCC3)ccc2[nH]1 [Example 12, 6-(Azocane-1-sulfonyl)-4-trifluoromethyl-1H-quinolin-one]
– | > 10000 nM | O=c1cc(C(F)(F)F)c2cc(S(=O)(=O)N3CCC(N4CCCC4)CC3)ccc2[nH]1 [Example 13, 6-(4-Pyrrolidin-1-ylpiperidine-1-sulfonyl)-4-trifluoromethyl-1H-quinolin-2-one]
– | 1260 nM | CCOC(=O)C1CCN(S(=O)(=O)c2ccc3[nH]c(=O)cc(C(F)(F)F)c3c2)CC1 [Example 15, 1-(2-Oxo-4-trifluoromethyl-1,2-dihydroquinoline-6-sulfonyl)piperidine-4-carboxylic acid ethylester]
– | 640 nM | O=c1cc(C(F)(F)F)c2cc(S(=O)(=O)N3CCC(O)(c4cccs4)CC3)ccc2[nH]1 [Example 16, 6-(4-Hydroxy-4-thiophen-2-ylpiperidine-1-sulfonyl)-4-trifluoromethyl-1H-quinolin-2-one]
– | 2960 nM | O=c1cc(C(F)(F)F)c2cc(S(=O)(=O)N3CCN(Cc4ccco4)CC3)ccc2[nH]1 [Example 17, 6-(4-Furan-2-ylmethylpiperazine-1-sulfonyl)-4-trifluoromethyl-1H-quinolin-2-one]
– | 490 nM | O=c1cc(C(F)(F)F)c2cc(S(=O)(=O)N3Cc4ccccc4C3)ccc2[nH]1 [Example 18, 6-(1,3-Dihydroisoindole-2-sulfonyl)-4-trifluoromethyl-1H-quinolin-2-one]
